Read-outs that look alike come from different tables or passages of the source.
Assays:
[1] = target: HBV core protein (C-terminal truncated core protein containing 149 amino acids of the N-terminal assembly domain) (UniProt P03146); assay: Biochemical capsid assembly assay (fluorescence quenching); design: rows headed: Assembly Activity; other: BODIPY-FL labelled core protein, assembly started with NaCl, read after 6 min; conditions: read-out: Assembly Activity; BODIPY-FL labelled core protein, assembly started with NaCl, read after 6 min
Sequence of HBV core protein (C-terminal truncated core protein containing 149 amino acids of the N-terminal assembly domain) (P03146 whole entry, the tested form may be a part): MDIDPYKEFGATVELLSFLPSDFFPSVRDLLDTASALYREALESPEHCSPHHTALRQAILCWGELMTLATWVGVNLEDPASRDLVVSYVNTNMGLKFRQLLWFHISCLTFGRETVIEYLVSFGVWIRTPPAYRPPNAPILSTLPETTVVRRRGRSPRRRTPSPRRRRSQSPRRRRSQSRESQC
Summary of the method: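 N-terminal assembly domain (residues 1–149) plus C-terminal Cys150, E. coli-expressed, BODIPY-FL-maleimide labelled, used at 1.0–2.0 μM in 50 mM HEPES pH 7.5 with 0.5% DMSO. Assembly started with NaCl ([…]); fluorescence quenching (ex 477/em 525 nm) read after 6 min. 8-point compound series; EC50 by non-linear regression.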

[2] = Cell viability assay (AlamarBlue); conditions: human, HepAD38 cells
Protocol: Using the AlamarBlue viability assay cytotoxicity was evaluated in HepAD38 cells in the presence of 0.3 μg/ml tetracycline, which blocks the expression of the HBV genome. Assay condition and plate layout were in analogy to the anti-HBV assay, however other controls were used. On each assay plate six wells containing untreated HepAD38 cells were used as the 100% viability control, and six wells filled with assay medium only were used as 0% viability control. In addition, a geometric concentration series of cycloheximide starting at 60 μM final assay concentration was used as positive control in each experiment. After six days incubation period Alamar Blue Presto cell viability reagent (ThermoFisher, Dreieich) was added in 1/11 dilution to each well of the assay plate. After an incubation for 30 to 45 min at 37° C. the fluorescence signal, which is proportional to the number of living cells, was read using a Tecan Spectrafluor Plus plate reader with an excitation filter 550 nm and emission filter 595 nm, respectively. Data were normalized into percentages of the untreated control (100% viability) and assay medium (0% viability) before CC50 values were calculated using non-linear regression and the GraphPad Prism 6.0 (GraphPad Software, La Jolla, USA). Mean EC50 and CC50 values were used to calculate the selectivity index (SI=CC50/EC50) for each test compound.

HBV = assay: Determination of HBV DNA from the supernatants of HepAD38 cells (anti-HBV activity); format: cell-based, hepatitis B virus; conditions: Hepatitis B virus, HePAD38, 144 h, HBV DNA in HepAD38 supernatant, day 6, qPCR, read-out: Cell Activity
Summary of the method: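 EC50 derived by non-linear regression of relative HBV DNA copy numbers, measured by qPCR (plasmid standards) in day-6 filtered supernatants. Before this, HepAD38 cells were exposed to serial half-log compound dilutions without tetracycline, releasing viral expression; cultures kept at 37 °C, 5% CO2.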

Row | SMILES | IC50 [1] | CC50 at 6 days [2] | EC50 (HBV) | EC50 (HBV; printed as number instead of class symbol)
1 | CN(Cc1ccccc1)C(=O)c1cnn2c1CN(C(=O)c1cc3ccccc3[nH]1)CC2 [Example 63, N-benzyl-5-(1H-indole-2-carbonyl)-N-methyl-4H,5H,6H,7H-pyrazolo[1,5-a]pyrazine-3-carboxamide] | < 5 µM | > 10 µM | < 1000 nM | 
2 | CN(C(=O)c1cnn2c1CN(C(=O)c1cc3ccccc3[nH]1)CC2)C1(COCCO)CC1 [Example 64, N-{1-[(2-hydroxyethoxy)methyl]cyclopropyl}-5-(1H-indole-2-carbonyl)-N-methyl-4H,5H,6H,7H-pyrazolo[1,5-a]pyrazine-3-carboxamide] | < 5 µM | > 10 µM | < 1000 nM | 
3 | CN(C(=O)c1cnn2c1CN(C(=O)c1cc3ccccc3[nH]1)CC2)C1(COCCCO)CC1 [Example 65, N-{1-[(3-hydroxypropoxy)methyl]cyclopropyl}-5-(1H-indole-2-carbonyl)-N-methyl-4H,5H,6H,7H-pyrazolo[1,5-a]pyrazine-3-carboxamide] | < 5 µM | > 10 µM | < 1000 nM | 
4 | O=C(c1cc2ccccc2[nH]1)N1CCn2ncc(-c3cscn3)c2C1 [Example 66, 2-[3-(1,3-thiazol-4-yl)-4H,5H,6H,7H-pyrazolo[1,5-a]pyrazine-5-carbonyl]-1H-indole] | < 5 µM | > 10 µM | < 1000 nM | 
5 | O=C(c1cc2ccccc2[nH]1)N1CCn2ncc(C(=O)N3CCCOCC34CC4)c2C1 [Example 67, 4-[5-(1H-indole-2-carbonyl)-4H,5H,6H,7H-pyrazolo[1,5-a]pyrazine-3-carbonyl]-8-oxa-4-azaspiro[2.6]nonane] | < 5 µM | > 10 µM | < 1000 nM | 
6 | O=C(c1cc2ccccc2[nH]1)N1CCn2ncc(C(=O)N3CCOCCC34CC4)c2C1 [Example 68, 4-[5-(1H-indole-2-carbonyl)-4H,5H,6H,7H-pyrazolo[1,5-a]pyrazine-3-carbonyl]-7-oxa-4-azaspiro[2.6]nonane] | < 5 µM | > 10 µM | < 1000 nM | 
7 | O=C(c1cc2ccccc2[nH]1)N1CCn2ncc(C(=O)N3CCOC(F)(F)C3)c2C1 [Example 69, 2-[3-(2,2-difluoromorpholine-4-carbonyl)-4H,5H,6H,7H-pyrazolo[1,5-a]pyrazine-5-carbonyl]-1H-indole] | < 5 µM | > 10 µM | < 1000 nM | 
8 | CN(C(=O)c1cnn2c1CN(C(=O)c1cc3ccccc3[nH]1)CC2)C1(c2cccnc2)CC1 [Example 72, 5-(1H-indole-2-carbonyl)-N-methyl-N-[1-(pyridin-3-yl)cyclopropyl]-4H,5H,6H,7H-pyrazolo[1,5-a]pyrazine-3-carboxamide] | < 5 µM | > 10 µM | < 1000 nM | 
9 | O=C(c1cc2ccccc2[nH]1)N1CCn2ncc(C3CCCO3)c2C1 (stereo not drawn) [Example 73, 2-[3-(oxolan-2-yl)-4H,5H,6H,7H-pyrazolo[1,5-a]pyrazine-5-carbonyl]-1H-indole] | < 5 µM | > 10 µM | < 1000 nM | 
10 | CN(C(=O)c1cnn2c1CN(C(=O)c1cc3ccccc3[nH]1)CC2)C1CC1 [Example 74, N-cyclopropyl-5-(1H-indole-2-carbonyl)-N-methyl-4H,5H,6H,7H-pyrazolo[1,5-a]pyrazine-3-carboxamide] | < 5 µM | > 10 µM | < 1000 nM | 
11 | O=C(c1cc2ccccc2[nH]1)N1CCn2ncc(C(=O)N(CCO)C3(CO)CC3)c2C1 [Example 75, N-(2-hydroxyethyl)-N-[1-(hydroxymethyl)cyclopropyl]-5-(1H-indole-2-carbonyl)-4H,5H,6H,7H-pyrazolo[1,5-a]pyrazine-3-carboxamide] | < 5 µM | > 10 µM | < 1000 nM | 
12 | O=C(c1cc2ccccc2[nH]1)N1CCn2ncc(N3CCC4(CC4)C3=O)c2C1 [Example 76, 5-[5-(1H-indole-2-carbonyl)-4H,5H,6H,7H-pyrazolo[1,5-a]pyrazin-3-yl]-5-azaspiro[2.4]heptan-4-one] | 5 to 10 µM | > 10 µM | 1000 to 10000 nM | 
13 | CN(CCO)C(=O)c1cnn2c1CN(C(=O)c1cc3ccccc3[nH]1)CC2 [Example 77, N-(2-hydroxyethyl)-5-(1H-indole-2-carbonyl)-N-methyl-4H,5H,6H,7H-pyrazolo[1,5-a]pyrazine-3-carboxamide] | < 5 µM | > 10 µM | < 1000 nM | 
14 | C[C@H](NC(=O)c1cnn2c1CN(C(=O)c1cc3ccccc3[nH]1)CC2)C(F)(F)F [Example 78, 5-(1H-indole-2-carbonyl)-N-[(2S)-1,1,1-trifluoropropan-2-yl]-4H,5H,6H,7H-pyrazolo[1,5-a]pyrazine-3-carboxamide] | < 5 µM | > 10 µM | < 1000 nM | 
15 | C[C@@H](NC(=O)c1cnn2c1CN(C(=O)c1cc3ccccc3[nH]1)CC2)C(F)(F)F [Example 79, 5-(1H-indole-2-carbonyl)-N-[(2R)-1,1,1-trifluoropropan-2-yl]-4H,5H,6H,7H-pyrazolo[1,5-a]pyrazine-3-carboxamide] | < 5 µM | > 10 µM | < 1000 nM | 
16 | CN(C(=O)c1cnn2c1CN(C(=O)c1cc3ccccc3[nH]1)CC2)C1(CNCC(F)(F)F)CC1 [Example 80, 5-(1H-indole-2-carbonyl)-N-methyl-N-(1-{[(2,2,2-trifluoroethyl)amino]methyl}cyclopropyl)-4H,5H,6H,7H-pyrazolo[1,5-a]pyrazine-3-carboxamide] | < 5 µM | > 10 µM | < 1000 nM | 
17 | CN(C(=O)c1cnn2c1CN(C(=O)c1cc3c(F)c(F)ccc3[nH]1)CC2)C1(CO)CC1 [Example 81, 5-(4,5-difluoro-1H-indole-2-carbonyl)-N-[1-(hydroxymethyl)cyclopropyl]-N-methyl-4H,5H,6H,7H-pyrazolo[1,5-a]pyrazine-3-carboxamide] | < 5 µM | > 10 µM | < 1000 nM | 
18 | CN(C(=O)c1cnn2c1CN(C(=O)c1cc3c(F)ccc(F)c3[nH]1)CC2)C1(CO)CC1 [Example 82, 5-(4,7-difluoro-1H-indole-2-carbonyl)-N-[1-(hydroxymethyl)cyclopropyl]-N-methyl-4H,5H,6H,7H-pyrazolo[1,5-a]pyrazine-3-carboxamide] | < 5 µM | > 10 µM | < 1000 nM | 
19 | Cc1cc(F)cc2[nH]c(C(=O)N3CCn4ncc(C(=O)N(C)C5(CO)CC5)c4C3)cc12 [Example 83, 5-(6-fluoro-4-methyl-1H-indole-2-carbonyl)-N-[1-(hydroxymethyl)cyclopropyl]-N-methyl-4H,5H,6H,7H-pyrazolo[1,5-a]pyrazine-3-carboxamide] | < 5 µM | > 10 µM | < 1000 nM | 
20 | CN(C(=O)c1cnn2c1CN(C(=O)c1cc3cc(F)c(Cl)cc3[nH]1)CC2)C1(CO)CC1 [Example 84, 5-(6-chloro-5-fluoro-1H-indole-2-carbonyl)-N-[1-(hydroxymethyl)cyclopropyl]-N-methyl-4H,5H,6H,7H-pyrazolo[1,5-a]pyrazine-3-carboxamide] | < 5 µM | > 10 µM | < 1000 nM | 
21 | CN(C(=O)c1cnn2c1CN(C(=O)c1cc3c(Cl)cc(F)cc3[nH]1)CC2)C1(CO)CC1 [Example 85, 5-(4-chloro-6-fluoro-1H-indole-2-carbonyl)-N-[1-(hydroxymethyl)cyclopropyl]-N-methyl-4H,5H,6H,7H-pyrazolo[1,5-a]pyrazine-3-carboxamide] | < 5 µM | > 10 µM | < 1000 nM | 
22 | O=C(O)c1ccccc1C1CC(=O)N(c2cnn3c2CN(C(=O)c2cc4ccccc4[nH]2)CC3)C1 (stereo not drawn) [Example 86, 2-{1-[5-(1H-indole-2-carbonyl)-4H,5H,6H,7H-pyrazolo[1,5-a]pyrazin-3-yl]-5-oxopyrrolidin-3-yl}benzoic Acid] | < 5 µM | > 10 µM | 1000 to 10000 nM | 
23 | CC(C)(C)NC(=O)c1cnn2c1CN(C(=O)c1cc3ccccc3[nH]1)CC2 [Example 87, N-tert-butyl-5-(1H-indole-2-carbonyl)-4H,5H,6H,7H-pyrazolo[1,5-a]pyrazine-3-carboxamide] | < 5 µM | > 10 µM | < 1000 nM | 
24 | O=C(O)c1cccc(F)c1C1CC(=O)N(c2cnn3c2CN(C(=O)c2cc4ccccc4[nH]2)CC3)C1 (stereo not drawn) [Example 88, 3-fluoro-2-{1-[5-(1H-indole-2-carbonyl)-4H,5H,6H,7H-pyrazolo[1,5-a]pyrazin-3-yl]-5-oxopyrrolidin-3-yl}benzoic Acid] | < 5 µM | > 10 µM |  | > 10000 nM
25 | CC(COC(F)F)NC(=O)c1cnn2c1CN(C(=O)c1cc3ccccc3[nH]1)CC2 (stereo not drawn) [Example 89, N-[1-(difluoromethoxy)propan-2-yl]-5-(1H-indole-2-carbonyl)-4H,5H,6H,7H-pyrazolo[1,5-a]pyrazine-3-carboxamide] | < 5 µM | > 10 µM | < 1000 nM | 
26 | O=C(c1cc2ccccc2[nH]1)N1CCn2ncc(C(=O)N(CCOC(F)F)C3CC3)c2C1 [Example 90, N-cyclopropyl-N-[2-(difluoromethoxy)ethyl]-5-(1H-indole-2-carbonyl)-4H,5H,6H,7H-pyrazolo[1,5-a]pyrazine-3-carboxamide] | < 5 µM | > 10 µM | < 1000 nM | 
